# From ChEMBL document CHEMBL3608269, “Triazole-Linked Glycolipids Enhance the Susceptibility of MRSA to β-Lactam Antibiotics” (ACS Med Chem Lett, 2015)
# The source made the active and inactive calls. The calls are words filed in the database; no cut-off is given here.
# What was measured:
# Staphylococcus aureus [1] = experiment: Potentiation of oxacillin-mediated antibacterial activity against methicillin-resistant Staphylococcus aureus R36 clinical isolate at 32 ug/ml after 20 to 24 hrs by CLSI method; format: functional
# Staphylococcus aureus [2] = experiment: Potentiation of oxacillin-mediated antibacterial activity against methicillin-resistant Staphylococcus aureus R53 clinical isolate at 16 ug/ml after 20 to 24 hrs by CLSI method; format: functional
# Staphylococcus aureus [3] = experiment: Potentiation of oxacillin-mediated antibacterial activity against methicillin-resistant Staphylococcus aureus R314 clinical isolate at 32 ug/ml after 20 to 24 hrs by CLSI method; format: functional
# Staphylococcus aureus [4] = experiment: Potentiation of penicillin-mediated antibacterial activity against methicillin-resistant Staphylococcus aureus ATCC 43300 assessed as decrease in penicillin MIC at 32 ug/ml by checkerboard method relative to control; format: functional
# Staphylococcus aureus [5] = experiment: Potentiation of oxacillin-mediated antibacterial activity against methicillin-resistant Staphylococcus aureus R313 clinical isolate at 32 ug/ml after 20 to 24 hrs by CLSI method; format: functional
# Staphylococcus aureus [6] = experiment: Potentiation of oxacillin-mediated antibacterial activity against methicillin-resistant Staphylococcus aureus R302 clinical isolate at 32 ug/ml after 20 to 24 hrs by CLSI method; format: functional
# Staphylococcus aureus [7] = experiment: Potentiation of oxacillin-mediated antibacterial activity against methicillin-resistant Staphylococcus aureus R49 clinical isolate at 16 ug/ml after 20 to 24 hrs by CLSI method; format: functional
# Staphylococcus aureus [8] = experiment: Potentiation of cefepime mediated antibacterial activity against methicillin-resistant Staphylococcus aureus ATCC 43300 assessed as decrease in cefepime MIC at 32 ug/ml by checkerboard method relative to control; format: functional
# Staphylococcus aureus [9] = experiment: Potentiation of oxacillin-mediated antibacterial activity against methicillin-resistant Staphylococcus aureus R36 clinical isolate assessed as decrease in oxacillin MIC at 32 ug/ml after 20 to 24 hrs by CLSI method relative to control; format: functional
# Staphylococcus aureus [10] = experiment: Potentiation of oxacillin-mediated antibacterial activity against methicillin-resistant Staphylococcus aureus R49 clinical isolate assessed as decrease in oxacillin MIC at 16 ug/ml after 20 to 24 hrs by CLSI method relative to control; format: functional
# Staphylococcus aureus [11] = experiment: Potentiation of cephazolin-mediated antibacterial activity against methicillin-resistant Staphylococcus aureus ATCC 43300 assessed as decrease in cephazolin MIC at 32 ug/ml by checkerboard method relative to control; format: functional
# Staphylococcus aureus [12] = experiment: Potentiation of oxacillin-mediated antibacterial activity against methicillin-resistant Staphylococcus aureus ATCC 43300 assessed as decrease in oxacillin MIC at 32 ug/ml after 20 to 24 hrs by CLSI method relative to control; format: functional
# Staphylococcus aureus [13] = experiment: Potentiation of cefuroxime mediated antibacterial activity against methicillin-resistant Staphylococcus aureus ATCC 43300 assessed as decrease in cefuroxime MIC at 32 ug/ml by checkerboard method relative to control; format: functional
# Staphylococcus aureus [14] = experiment: Potentiation of oxacillin-mediated antibacterial activity against methicillin-resistant Staphylococcus aureus R304 clinical isolate assessed as decrease in oxacillin MIC at 32 ug/ml after 20 to 24 hrs by CLSI method relative to control; format: functional
# Staphylococcus aureus [15] = experiment: Potentiation of cefaclor-mediated antibacterial activity against methicillin-resistant Staphylococcus aureus ATCC 43300 assessed as decrease in cefaclor MIC at 32 ug/ml by checkerboard method relative to control; format: functional
# Staphylococcus aureus [16] = experiment: Potentiation of oxacillin-mediated antibacterial activity against methicillin-resistant Staphylococcus aureus ATCC 43300 assessed as growth inhibition at 32 ug/ml after 24 hrs by epsilometer test; format: functional, organism-based
# MEF = experiment: Cytotoxicity against MEF assessed as cell viability at 8 to 128 ug/ml by MTS assay; format: cell-based; conditions: mouse
# Staphylococcus aureus [17] = experiment: Potentiation of oxacillin-mediated antibacterial activity against methicillin-resistant Staphylococcus aureus R308 clinical isolate assessed as decrease in oxacillin MIC at 32 ug/ml after 20 to 24 hrs by CLSI method relative to control; format: functional
# Staphylococcus aureus [18] = experiment: Potentiation of oxacillin-mediated antibacterial activity against methicillin-resistant Staphylococcus aureus R16 clinical isolate at 32 ug/ml after 20 to 24 hrs by CLSI method; format: functional
# Staphylococcus aureus [19] = experiment: Potentiation of oxacillin-mediated antibacterial activity against methicillin-resistant Staphylococcus aureus R306 clinical isolate at 32 ug/ml after 20 to 24 hrs by CLSI method; format: functional
# Staphylococcus aureus [20] = experiment: Antibacterial activity against methicillin-resistant Staphylococcus aureus ATCC 43300 assessed as growth inhibition at 32 ug/ml measured up to 24 hrs by time kill assay; format: functional, organism-based
structure (smiles),measurement,setting,value
CCCCCCCCCCCCOCc1cn([C@@H]2O[C@H](CO)[C@@H](O)[C@H](O)[C@H]2O)nn1,MIC,Staphylococcus aureus [1],8 µg/mL
same,MIC,Staphylococcus aureus [2],< 1 µg/mL
same,MIC,Staphylococcus aureus [3],16 µg/mL
same,fold change (FC),Staphylococcus aureus [4],<=256
same,MIC,Staphylococcus aureus [5],8 µg/mL
same,MIC,Staphylococcus aureus [6],128 µg/mL
same,MIC,Staphylococcus aureus [7],< 1 µg/mL
same,fold change (FC),Staphylococcus aureus [8],<=256
same,MIC,Staphylococcus aureus [9],8 µg/mL
same,MIC,Staphylococcus aureus [10],8 µg/mL
same,fold change (FC),Staphylococcus aureus [11],<=256
same,fold change (FC),Staphylococcus aureus [12],128
same,fold change (FC),Staphylococcus aureus [13],<=256
same,MIC,Staphylococcus aureus [14],2 µg/mL
same,fold change (FC),Staphylococcus aureus [15],<=256
same,growth inhibition (GI),Staphylococcus aureus [16],Active
same,Activity,MEF,Non-toxic
same,MIC,Staphylococcus aureus [17],4 µg/mL
same,MIC,Staphylococcus aureus [18],64 µg/mL
same,MIC,Staphylococcus aureus [19],32 µg/mL
same,growth inhibition (GI),Staphylococcus aureus [20],inactive
